Assay results from patent USRE38169E1, “Hyperstabilizing antisense nucleic acid binding agents” (priority 1993, dated 2003).

Assays:
[1] = test system: single-stranded materials; experiment: Binding of drug to single strands; conditions: under the conditions used
Source text: (§1) When methyl phosphonate and synthetic RNA were used, the purities of the crude oligonucleotides were taken to be about 30%, based on the data sheet prepared by the supplier. (The remainder comprised primarily truncated sequences.) Appropriate excess amounts of these agents were included in the reactions to ensure helix formation. The corresponding sense or antisense oligonucleotides were maintained at 0.075 μmol-P in the reaction. […] Unpurified materials were used in these preliminary studies because of the relatively high cost of purified oligoribonucleotides. The majority of the contributions to A260 for these samples should be due to material that was not duplexed.

Poly rA - Oligo dT (PO) = experiment: Duplex strand separation temperature (Tm); type: binding
Method: (§2) Samples for determining Tm were also obtained by the above procedures. […] Thus the effects of this agent on Tm were carried out with Distamycin in solution with the duplexes tested.
(§3) Tm's were determined on a Gilford 2400 Spectrophotometer set at 260 nm, with a 4-chamber Peltier-based temperature controller. Temperature was ramped linearly at 0.5° C./min. Absorbance data were acquired with a 12-bit A/D converter, and data were processed with Lotus 123W and SigmaPlot software. Tm values were determined from the plots as the midpoint of the thermal transitions.

Oligo dA - Oligo dT = experiment: Duplex strand separation temperature (Tm); type: binding
Method: as §2, §3

[2] = test system: mRNA of a fragment of the env gene of EIAV; experiment: In vitro translation (wheat-germ extract, 35S-methionine); type: biochemical; conditions: 1.95 μg mRNA; antisense about 3 times mRNA sense; CC-1065 3 times antisense; scintillation spectrometry
Method: The in vitro translation studies were performed as follows. A fragment of DNA from the env gene of EIAV was transcribed with an SP-6 polymerase kit, and the resulting mRNA (approximately 600 bases long) was capped and isolated. The transcribed fragment included the target sequence 5′-[…]-3′ (SEQ ID NO. 3) (the CC-1065 binding site is underlined). The corresponding antisense sequence (using normal phosphodiester chemistry) was 5′-[…]-3′ (SEQ ID NO. 4). Translation was performed with a wheat-germ extract (Promega) in the presence of ^35S-methionine. The mRNA's were divided into approximately 2 μg aliquots, and treated according to the protocols listed for Table 3 below. Treated mRNA was separated from small molecules (such as DMSO and CC-1065) with a Sephadex 50-based NICK column. Translation was carried out in 25 μl of buffer containing the wheat germ translation system; the isolated mRNA; amino acids, including the labelled methionine; and RNAsin, an inhibitor of RNase. The proteins produced were divided into two aliquots. One aliquot was fractionated by SDS-PAGE, followed by autoradiography; and the other was analyzed by scintillation spectrometry. The concentrations of antisense oligomers and CC-1065 in the free-solution chemistries were relatively high compared to the sense target, to optimize duplex formation and drug binding. […] The following pairs were different at the P<0.05 level by Student's t-test (unpaired analysis): 1,5; 2,5; 3,4; 3,5; 4,5.

poly(dA)-poly(dT) = conditions: reported, cited from earlier work
[3] = test system: DNA sense (SEQ ID NO. 1) / DNA-MP antisense duplex (PO-MP); experiment: Binding of drug to duplex (NACS column, A365/A260); set-up: species or system equine infectious anemia retrovirus; conditions: for Final D/N (CC-1065/nucleotide) Bound to Duplex: PO-MP
Method: (§4) Oligodeoxyribonucleotides were obtained by chemical synthesis through standard techniques on an automated synthesizer located in the Department of Veterinary Microbiology and Parasitology at Louisiana State University. Antisense MP and PS oligonucleotides were obtained from commercial sources, as was synthetic sense RNA. Poly(rA) was obtained from Sigma Chemical Co. CC-1065 was obtained from the Upjohn Company. Oligonucleotides (0.075 μmol-P each) were mixed in 0.36 ml 0.01 M Na cacodylate buffer, pH 7.2, with CC-1065 in dimethyl formamide (0.04 ml), or with dimethylformamide only. (Note that “μmol-P” denotes μmoles of phosphate; i.e., μmoles of nucleotide bases, rather than of oligonucleotides per se.) Incubations of complementary strands, with or without drug, were carried out at 37° C. for 4 hr. In the initial experiments, unbound drug was separated from nucleotide duplexes by ethanol precipitation. Equivalent results were obtained by trapping the oligonucleotides and CC-1065 on NACS-52 columns, and washing first with low-salt buffer and then with buffer containing 1M NaCl. Unbound CC-1065 was completely retained on the column. […] Samples prepared in this manner could be directly used for determination of binding of the drug to the nucleic acid (as measured by the A365/A260 ratio), with the extinction of CC-1065 absorbance at 365 nm taken as 48,000, and the extinction of the nucleic acid absorption at 260 nm based on its composition. Similar approaches were used with the drug U-71,184, with an assumed extinction of 32,000 at 365 nm.
as §1
(§5) Table 1 summarizes binding data obtained from incubations of CC-1065 with nucleotides at greater than stoichiometric levels; the levels used in these experiments were 1 drug molecule/10 nucleotide residues, which is equivalent to 4 drug molecules/20-mer duplex. […] There seemed to be no difference in drug binding between antisense oligonucleotides with a PO and those with a PS backbone. Again, the 5′-AGTTA-3′ sequence on the sense strand was presumably the primary target, and the 3′-AAGTA-5′ on the antisense probe was presumably the secondary target.

[4] = test system: DNA sense (SEQ ID NO. 1) / DNA-PS antisense duplex (PO-PS); experiment: Binding of drug to duplex (NACS column, A365/A260); set-up: species or system equine infectious anemia retrovirus; conditions: for Final D/N (CC-1065/nucleotide) Bound to Duplex: PO-PS
Method: as §4, §1, §5

Poly(rA)-Oligo(dT) = experiment: Binding of drug to duplex (NACS column, A365/A260); conditions: for Final D/N (CC-1065/nucleotide) Bound to Duplex: Poly(rA)-Oligo(dT)
Method: as §4, §1, §5

Oligo(dA)-Oligo(dT) = experiment: Binding of drug to duplex (NACS column, A365/A260); conditions: for Final D/N (CC-1065/nucleotide) Bound to Duplex: Oligo(dA)-Oligo(dT)
Method: as §4, §1, §5

[5] = CC-1065 initial D/N = 0.025, regions lacking CC-1065
[6] = CC-1065 initial D/N = 0.025, regions with CC-1065
[7] = CC-1065 initial D/N = 0.1, minimum Tm estimate
[8] = saturation, initial CC-1065/nucleotide 0.1, 37° C., 4 hr

COc1c(O)c2c(c3cc(C(=O)N4CCc5c4c(O)c(OC)c4[nH]c(C(=O)N6CC7CC78C6=CC(=O)c6[nH]cc(C)c68)cc54)[nH]c13)CCN2C(N)=O (stereo not drawn) [CC-1065]
Binding to single-stranded materials [1]: found not to bind to single-stranded materials
Tm, lower transition of biphasic curve (Poly rA - Oligo dT (PO); [5]): 51 °C
Tm, higher transition of biphasic curve (Poly rA - Oligo dT (PO); [6]): 76 °C
Tm (Poly rA - Oligo dT (PO); [7]): ≥ 81.3 ± 0.6^4,5 °C
Duplex Strand Separation Temperature (Poly rA - Oligo dT (PO); Poly rA / Oligo dT (PO), drug-bound duplex (Table 6)): ≥ 81.3 ± 0.6^4
Stabilization of duplexes (Poly rA - Oligo dT (PO); poly(rA)-oligo(dT)): strong stabilization
Tm Elevation (Poly rA - Oligo dT (PO); rA-dT, highest level of binding obtained): 28.3 °C
Tm, lower transition of biphasic curve (Oligo dA - Oligo dT; [5]): 50 °C
Tm, higher transition of biphasic curve (Oligo dA - Oligo dT; [6]): 85 °C
Tm (Oligo dA - Oligo dT; [7]): ≥ 85.5 ± 0.7^4,5 °C
Duplex Strand Separation Temperature (Oligo dA - Oligo dT; Oligo dA / Oligo dT, drug-bound duplex (Table 6)): ≥ 85.5 ± 0.7^4
Tm Elevation (Oligo dA - Oligo dT; dA-dT, highest level of binding obtained): 28.5 °C
DPM S-35 ± standard error [2]: 133.040 ± 13.227 DPM
Tm (poly(dA)-poly(dT); CC-1065 bound): ~100 °C
Increase in Tm (poly(dA)-poly(dT); under the conditions of the experiment): over 30 °C
Estimate of drug bound per duplex by titration with a range of MP ([3]; MP antisense oligonucleotides): # With MP antisense oligonucleotides, titration with a range of MP gave an estimate of 1 molecule bound per duplex. Precipitation with NaCl and EtOH gave similar results, but recoveries were lower. Single-strand components did not bind CC-1065.
Binding for MP antisense sequences ([3]; MP antisense sequences): about 1 drug molecule/duplex
Final D/N (CC-1065/nucleotide) Bound to Duplex ([3]; Initial D/N 0.025): 0.016 ± 0.0008
Final D/N (CC-1065/nucleotide) Bound to Duplex ([3]; Initial D/N 0.04, single determination): 0.019^4
Final D/N (CC-1065/nucleotide) Bound to Duplex ([3]; Initial D/N 0.10): 0.031 ± 0.001
Approx. No. CC-1065 Bound/20 Base Pairs [3, 8]: ~1
Final D/N (CC-1065/nucleotide) Bound to Duplex ([4]; Initial D/N 0.01): 0.010 ± 0
Final D/N (CC-1065/nucleotide) Bound to Duplex ([4]; Initial D/N 0.025): 0.024 ± 0.0005
Final D/N (CC-1065/nucleotide) Bound to Duplex ([4]; Initial D/N 0.04): 0.032 ± 0.001
Final D/N (CC-1065/nucleotide) Bound to Duplex ([4]; Initial D/N 0.065): 0.047 ± 0.0005
Final D/N (CC-1065/nucleotide) Bound to Duplex ([4]; Initial D/N 0.10): 0.049 ± 0
Approx. No. CC-1065 Bound/20 Base Pairs [4, 8]: ~2
Final D/N (CC-1065/nucleotide) Bound to Duplex (Poly(rA)-Oligo(dT); Initial D/N 0.01): 0.003 ± 0.002
Final D/N (CC-1065/nucleotide) Bound to Duplex (Poly(rA)-Oligo(dT); Initial D/N 0.025): 0.008 ± 0.004
Final D/N (CC-1065/nucleotide) Bound to Duplex (Poly(rA)-Oligo(dT); Initial D/N 0.04): 0.011 ± 0.004
Final D/N (CC-1065/nucleotide) Bound to Duplex (Poly(rA)-Oligo(dT); Initial D/N 0.065): 0.022 ± 0.004
Final D/N (CC-1065/nucleotide) Bound to Duplex (Poly(rA)-Oligo(dT); Initial D/N 0.10): 0.028 ± 0.001
Approx. No. CC-1065 Bound/20 Base Pairs (Poly(rA)-Oligo(dT); [8]): ~1
Final D/N (CC-1065/nucleotide) Bound to Duplex (Oligo(dA)-Oligo(dT); Initial D/N 0.01): 0.008 ± 0.001
Final D/N (CC-1065/nucleotide) Bound to Duplex (Oligo(dA)-Oligo(dT); Initial D/N 0.025): 0.018 ± 0.0006
Final D/N (CC-1065/nucleotide) Bound to Duplex (Oligo(dA)-Oligo(dT); Initial D/N 0.04): 0.028 ± 0.006
Final D/N (CC-1065/nucleotide) Bound to Duplex (Oligo(dA)-Oligo(dT); Initial D/N 0.065): 0.058 ± 0.002
Final D/N (CC-1065/nucleotide) Bound to Duplex (Oligo(dA)-Oligo(dT); Initial D/N 0.10): 0.063 ± 0.002
Approx. No. CC-1065 Bound/20 Base Pairs (Oligo(dA)-Oligo(dT); [8]): ~2.5
